Experimental data published in article PMC9841524, “Structure-Based Rational Design of Small α-Helical Peptides with Broad-Spectrum Activity against Multidrug-Resistant Pathogens” (Journal of Medicinal Chemistry, 2022).
Like-named read-outs stand apart in the source and are kept apart here. Where no end group is shown, it is not given here.

Tests used:
[1] = tested on: S. aureus (ATCC 29213); experiment: MIC, standard microtiter dilution (CLSI); assay type: cell-based; conditions: broth microdilution (CLSI), CAMHB, 37 °C, 24 h
In short: (§1)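 Broth microdilution per CLSI: overnight cultures diluted in cation-adjusted Mueller Hinton Broth to 10^6 CFU/mL, mixed with 2-fold serial peptide dilutions, incubated 37 °C for 24 h. MIC = lowest peptide concentration inhibiting growth. Three independent assays in triplicate.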

[2] = tested on: E. coli (ATCC 25922); conditions: broth microdilution (CLSI), CAMHB, 37 °C, 24 h
In short: as §1

[3] = tested on: MRSA (ATCC BAA-1556); conditions: broth microdilution (CLSI), CAMHB, 37 °C, 24 h
In short: as §1

[4] = tested on: P. aeruginosa (ATCC 27883); experiment: MIC, standard microtiter dilution (CLSI); assay type: cell-based, Pseudomonas aeruginosa; conditions: broth microdilution (CLSI), CAMHB, 37 °C, 24 h
In short: as §1

[5] = tested on: K. pneumoniae (ATCCBAA-1705); experiment: MIC, standard microtiter dilution (CLSI); assay type: cell-based, Klebsiella pneumoniae; conditions: broth microdilution (CLSI), CAMHB, 37 °C, 24 h
In short: as §1

[6] = tested on: human red blood cells (hRBCs); experiment: Hemolytic assay; assay type: cell-based; conditions: 2 h, 37 °C
In short: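 Percent hemolysis uses PBS as 0% and 1% Triton X-100 as 100% references, from supernatant absorbance at 567 nm. Red cells (4% in PBS, equal volume) exposed 2 h at 37 °C without agitation to 2-fold serially diluted peptide.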

[7] = Relative hydrophobicity as RP-HPLC retention time; assay type: physicochemical; conditions: chromatographic, Phenomenex Luna C18 4 μm 150 × 4.6 mm, linear AB gradient 1% acetonitrile/min, 0.3 mL/min, A water 0.1% TFA, B acetonitrile 0.1% TFA, 25 °C
Procedure: The purity analysis of the peptides was conducted on a RP-HPLC system (Shimadzu; LC-20ADXR) by using a Phenomenex (Luna) analytical C18 column (4 μm, 150 × 4.6 mm). The mass of the purified peptides was determined in the positive-ion mode using Q-TOF LC/MS (Compass Hystar 4.1, Bruker, USA). The purity (>95%) and mass data of all the synthesized peptides are provided in the Supporting Information.
8. Comparative Hydrophobicity analysis
The purity of all synthesized peptides was determined using reverse phase analytical HPLC
(Shimadzu; LC-20ADXR). Below mentioned are the conditions used to conduct the purity
Column: Phenomenex (Luna), 4 um, C18, 150 × 4.6 mm
Mobile Phase: Buffer A-Water containing 0.1% TFA,
Buffer B-Acetonitrile containing 0.1% TFA
Figure S52. HPLC chromatogram of 6a.
(1 picture or pasted object on this page, not shown here)

[8] = CD spectroscopy, helicity; assay type: physicochemical; design: key to Δ[θ]222 induced by TFE / Δ[θ]222 induced by Liposomes: mean residue molar ellipticity, mdeg cm2/(dmol × res); conditions: for [θ]222 mean residue molar ellipticity, TFE / [θ]222 mean residue molar ellipticity, Liposomes / [θ]222 mean residue molar ellipticity, PBS: CD at 222 nm, 25 °C; for [θ]222 mean residue molar ellipticity, TFE: aqueous buffer containing 50% TFE; for [θ]222 mean residue molar ellipticity, Liposomes / Δ[θ]222 induced by Liposomes: bacterial membrane mimicking liposomes; for [θ]222 mean residue molar ellipticity, Liposomes: peptide:lipid molar ratio 1:1.05; for [θ]222 mean residue molar ellipticity, PBS: phosphate buffer saline pH 7.0; for Δ[θ]222 induced by TFE / Δ[θ]222 induced by Liposomes: difference to PBS; for Δ[θ]222 induced by TFE: 50% TFE; for % of helicity induced by TFE: increase in molar ellipticity at 222 nm in the presence of 50% TFE; for % of helicity induced by Liposomes: increase in molar ellipticity at 222 nm in the presence of liposomes;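 as to % of helicity induced by Liposomes: share of the total helicity with liposomes gained over the same peptide in PBS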;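 as to % of helicity induced by TFE: share of the total helicity in TFE gained over the same peptide in PBS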
Procedure: The CD spectra of peptides were recorded using a Jasco J-1500 CD spectrophotometer (Jasco, Easton, MD) at 25 °C with a 1 mm path length cell. Wavelengths from 190 to 260 nm were scanned with 1.0 nm step resolution, 100 nm/min speed, 0.4 s response time, and 1 nm bandwidth. CD spectra of the peptides were collected and averaged over three scans in 10 mM sodium phosphate buffer (pH 7.2), helix-inducing solvent 50% TFE (v/v), and bacterial mimic liposomes (75 μM lipid). Spectra were corrected by subtracting a baseline spectrum containing only buffer or 50% TFE or liposomes. The mean residue molar ellipticity was calculated using the formula [drawing 3] where Ab222 is the absorbance observed at 222 nm, MRW is the mean residue molecular weight, C is the concentration in mg/mL, and L is the path length.
Table S1. RP-HPLC retention times and CD spectroscopy analysis of the selected peptides Peptide tR (min)a [θ]222b Δ[θ]222 induced by % of helicity inducedc by PBS TFE Liposomes TFE Liposomes TFE Liposomes […]
atR (min) denotes the retention time at 25°C by RP-HPLC. bThe mean residue molar ellipticity [θ] 222 (mdeg cm2/(dmol × res)) at 222 nm was measured at 25 °C in phosphate buffer saline (PBS, pH 7.0), in aqueous buﬀer containing 50% TFE (TFE), or in presence of bacterial membrane mimicking liposomes (peptide:lipid […]
c% helix induced is the increase in the molar ellipticity at 222 nm (in percentage) of a peptide in the presence of TFE or liposomes.

[9] = 10^6 CFU/mL, highest MIC of three independent experiments in triplicate
[10] = hRBC suspension 4% in PBS, hemoglobin release at 567 nm, 1% Triton X-100 = 100%
[11] = value in parentheses (μM), hRBC 4% in PBS, 567 nm

Substance	MIC, S. aureus (ATCC 29213) [1, 9] [µg/mL]	MIC, S. aureus (ATCC 29213) ([1]; value in parentheses (μM)) [µM]	MIC, E. coli (ATCC 25922) [2, 9] [µg/mL]	MIC, E. coli (ATCC 25922) ([2]; value in parentheses (μM)) [µM]	MIC, MRSA (ATCC BAA-1556) [3, 9] [µg/mL]	MIC, MRSA (ATCC BAA-1556) ([3]; value in parentheses (μM)) [µM]	MIC, P. aeruginosa (ATCC 27883) [4, 9] [µg/mL]	MIC, P. aeruginosa (ATCC 27883) ([4]; value in parentheses (μM)) [µM]	MIC, K. pneumoniae (ATCCBAA-1705) [5, 9] [µg/mL]	MIC, K. pneumoniae (ATCCBAA-1705) ([5]; value in parentheses (μM)) [µM]	HC50 (concentration at which 50% hemolysis was observed) [6, 10] [µg/mL]	HC50 (concentration at which 50% hemolysis was observed) [6, 11] [µM]	tR, RP-HPLC retention time (measure of overall hydrophobicity) [7] [min]	[θ]222 mean residue molar ellipticity, TFE [8]	[θ]222 mean residue molar ellipticity, Liposomes [8]	[θ]222 mean residue molar ellipticity, PBS [8]	Δ[θ]222 induced by TFE [8]	Δ[θ]222 induced by Liposomes [8]	% of helicity induced by TFE [8] [%]	% of helicity induced by Liposomes [8] [%]
KWLKKWWKWWKK-NH2 [8e]	12.5	6.83	12.5	6.83	12.5	6.83	12.5	6.83	25	13.66	240	131.13	34.10	-11148 mdeg cm2/(dmol × res)	-15042 mdeg cm2/(dmol × res)	-5411 mdeg cm2/(dmol × res)	-5736	-9630	51.45	64.02
KWAKKWWKWWKK-NH2 [6e]	12.5	6.99	25	13.98	12.5	6.99	25	13.98	50	27.96	360	201.32	29.87	-18419 mdeg cm2/(dmol × res)	-13181 mdeg cm2/(dmol × res)	-7968 mdeg cm2/(dmol × res)	-10451	-5213	56.74	39.55
Ac-RWIRRWIRWWRR-NH2 [7c]	6.2	3.15	12.5	6.35	6.2	3.15	6.2	3.15	25	12.70	40	20.33	40.63	-10279 mdeg cm2/(dmol × res)	-19297 mdeg cm2/(dmol × res)	-3192 mdeg cm2/(dmol × res)	-7087	-16105	68.94	83.45
